This note sets out measurements from article PMC9700728 (Nature Communications, 2022).

Test [1] addresses human thrombopoietin receptor MPL on Ba/F3-HuMpl cells (human) (UniProt P40238).
In test [2] the target is T1, rThC (recombinant thrombocorticin, ThC) (unclassified Corticium (in: sponges), UniProt C0HM62).
T1 construct: N-terminal 6xHis-tag (modified pET28), expressed in E. coli BL21(DE3); 131 residues, 14 kDa; homodimer, sugar site at protomer interface
T1 sequence (C0HM62 1-131): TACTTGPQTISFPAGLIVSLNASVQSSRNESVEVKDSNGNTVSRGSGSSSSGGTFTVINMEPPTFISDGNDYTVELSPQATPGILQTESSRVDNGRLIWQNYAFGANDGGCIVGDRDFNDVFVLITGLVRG
Description: inhibition of rThC-induced Ba/F3-HuMpl cell proliferation. It counts as cell-based. The note with it: rThC 1 μg/mL, RPMI-1640 with 10% FBS, 37 °C, 4 days; competes with MPL glycan.

The target in test [3] is T1, rThC (recombinant thrombocorticin, ThC). As to the kind of experiment: isothermal titration calorimetry. In kind it is binding. The note with it: 5 mM CaCl2, 20 mM HEPES-NaOH pH 8.0, 200 mM NaCl, 25 °C; Ca2+-mediated site at dimer interface. A general note: In ITC the heat of successive injections is recorded.
The target of a further test is T2, BC2L-C-CTD (Burkholderia cenocepacia, UniProt B4EH86).
T2 construct: gene BCAM0185; C-terminal domain of BC2L-C, N-terminal 6xHis-tag (modified pET28), expressed in E. coli BL21(DE3)
As to the kind of experiment: isothermal titration calorimetry. In kind it is binding. Conditions: 20 mM HEPES-NaOH pH 8.0, 200 mM NaCl, 25 °C. An excerpt:
isothermal titration calorimetry on BC2L-C-CTD | BC2L-C-CTD bound only to mannose

Test [4] has as its target T3, human thrombopoietin receptor MPL on Ba/F3-HuMpl cells (human, UniProt P40238 26-635).
T3 sequence (looked up): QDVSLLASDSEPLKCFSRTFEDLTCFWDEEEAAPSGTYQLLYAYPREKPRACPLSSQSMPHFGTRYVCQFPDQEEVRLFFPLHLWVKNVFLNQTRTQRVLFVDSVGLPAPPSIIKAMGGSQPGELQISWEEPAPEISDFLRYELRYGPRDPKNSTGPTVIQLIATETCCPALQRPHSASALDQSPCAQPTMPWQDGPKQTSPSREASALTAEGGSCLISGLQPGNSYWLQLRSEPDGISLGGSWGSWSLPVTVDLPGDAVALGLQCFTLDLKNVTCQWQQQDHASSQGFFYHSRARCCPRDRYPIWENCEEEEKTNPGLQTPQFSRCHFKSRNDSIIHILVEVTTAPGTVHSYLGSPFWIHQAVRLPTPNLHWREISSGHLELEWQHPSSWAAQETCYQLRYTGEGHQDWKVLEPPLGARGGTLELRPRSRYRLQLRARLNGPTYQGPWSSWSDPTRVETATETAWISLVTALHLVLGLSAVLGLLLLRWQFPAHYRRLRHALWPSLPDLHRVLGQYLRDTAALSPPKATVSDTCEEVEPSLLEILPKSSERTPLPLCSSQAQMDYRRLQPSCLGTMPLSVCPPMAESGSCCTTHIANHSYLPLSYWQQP
As to the kind of experiment: cell-based or functional assay.

In turn, “PA-IIL (from UniProt Q9HYN5 1-115) (natural protein)” displayed a proliferation of Ba/F3-HuMpl cells, EC50 in test [1] of 18.1 µg/mL.

On to `C[C@@H]1OC(O)[C@@H](O)[C@H](O)[C@@H]1O` (stereo partly drawn) [L-fucose], for which the IC50 in test [2] stood at 22.8 µM. Moreover, the Kd in test [3] amounted to 4.72 µM.

Turning to `OC[C@H]1OC(O)[C@@H](O)[C@@H](O)[C@@H]1O` (stereo partly drawn) [D-mannose], the equilibrium dissociation constant (Kd) on BC2L-C-CTD stood at 17.7 ± 0.32 µM. Further, the IC50 in test [2] turned out to be 6460 µM. Also, the KD in test [3] was 66.2 × 10 µM.

B1: N-terminal His-tagged recombinant thrombocorticin (wild type) (natural protein, UniProt C0HM62 1-131, looked up)
chain: T1 sequence (C0HM62 1-131)
As to B1, in test [4], the “proliferation of Ba/F3-HuMpl cells, EC50” value was 0.26 µg/mL.

As a reminder, the IC50 is the point on the concentration scale where inhibition reaches its midpoint. Broadly, the Kd is the equilibrium constant for the complex coming apart.
